Laboratory results published in BigSolDB 2.1.

O=C(O)Cc1ccccc1Cl
solubility (mole fraction)
Settings	273.15 K	278.15 K	283.15 K	288.15 K	293.15 K	298.15 K	303.15 K	308.15 K	313.15 K	318.15 K
in 2-butanone	0.254	0.282	0.315	0.351	0.389	0.426	0.462	0.496	0.528	0.567
in acetone	0.209	0.225	0.242	0.261	0.281	0.303	0.326	0.352	0.38	0.412
in acetonitrile	0.0582	0.0738	0.0925	0.114	0.139	0.168	0.199	0.234	0.272	0.314
in cyclohexane	–	–	0.00197	0.00263	0.00346	0.00454	0.00601	0.00799	0.0107	0.0145
in ethyl acetate	0.175	0.193	0.214	0.237	0.258	0.284	0.312	0.342	0.372	0.407
in ethylbenzene	0.0217	0.0278	0.0348	0.0437	0.0542	0.0678	0.0853	0.106	0.132	0.165
in isobutanol	0.15	0.172	0.199	0.226	0.256	0.288	0.322	0.357	0.394	0.433
in isopropanol	0.18	0.206	0.235	0.266	0.298	0.336	0.369	0.407	0.446	0.486
in n-butanol	0.142	0.164	0.19	0.217	0.247	0.28	0.314	0.349	0.387	0.425
in n-propanol	0.16	0.184	0.21	0.237	0.268	0.299	0.332	0.368	0.405	0.446
in toluene	0.0241	0.0307	0.0388	0.0491	0.0617	0.0778	0.0975	0.122	0.153	0.191
in water	0.000141	0.000186	0.000243	0.000311	0.000394	0.000506	0.000645	0.000821	0.00105	0.00134
